Results published in patent US20110015181A1, “ALKYLAMINOPYRIDINE DERIVATIVE” (priority 2008, published 2011).

What was measured:
[1] = target: human ERG (hERG) (Homo sapiens, UniProt Q12809); experiment: Affinity for human ERG (hERG); assay type: binding
Protocol: In addition, the affinities of compounds according to the present invention and compounds described in Patent Document 7 described above for human ERG (hERG) were examined. This examination method was carried out according to the method described in documents (for example, Japanese Unexamined Patent Application Publication No. 2004-512268).

[2] = target: T1, human NPY Y1 receptor (Homo sapiens, UniProt P25929); experiment: NPY binding inhibition test ([125I] peptide YY binding to membranes of NPY Y1 receptor expression cells); settings: membrane of CHO-K1 cells expressing human NPY Y1 receptor, 25° C., 2 hours; read-out: IC50 against specific [125I] peptide YY binding
T1 construct: expressed in transfected cells; host or cells: CHO-K1 NFAT β-Lactamase (Aurora)
T1 sequence (P25929 1-384): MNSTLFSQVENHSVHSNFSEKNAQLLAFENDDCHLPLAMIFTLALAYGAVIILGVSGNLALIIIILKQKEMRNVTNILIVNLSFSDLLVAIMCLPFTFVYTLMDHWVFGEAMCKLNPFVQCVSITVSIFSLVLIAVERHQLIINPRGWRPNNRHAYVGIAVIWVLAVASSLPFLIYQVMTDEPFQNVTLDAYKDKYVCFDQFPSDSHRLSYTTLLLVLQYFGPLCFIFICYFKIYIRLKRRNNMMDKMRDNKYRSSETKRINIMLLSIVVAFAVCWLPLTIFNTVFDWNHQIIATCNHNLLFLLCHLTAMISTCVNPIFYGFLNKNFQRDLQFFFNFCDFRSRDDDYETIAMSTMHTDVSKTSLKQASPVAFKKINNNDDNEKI
Protocol: A cDNA sequence encoding a human NPY Y1 receptor [Accession No. L07615] was cloned into expression vectors pEF1x (made by Invitrogen Inc.). The obtained expression vectors were transfected to host cells CHO-K1 NFAT β-Lactamase (Aurora) by cationic lipid method [see Proceedings of the National Academy of Sciences of the United States of America, 84: 7413 (1987)] to give NPY Y1 receptor expression cells.
A membrane sample prepared from the cells which expressed the NPY Yl receptor was incubated together with a test compound and [^125I] peptide YY (manufactured by Amersham) (20,000 cpm) in an assay buffer (HBSS buffer (pH 7.4) containing 20 mM HEPES, 0.5% BSA, 1 mM phenylmethylsulfonylfluoride and 0.1% bacitracin) at 25° C. for 2 hours, then filtered through a glass filter GF/C, and washed with 20 mM HEPES buffer (pH 7.4), followed by measuring the radioactivity of the cake on the glass filter with γ counter. Nonspecific binding was measured in the presence of 1 μM peptide YY and a 50% Inhibitory Concentration (IC50) of the test compound against specific [^125I] peptide YY binding was determined [Endocrinology, 131: 2090 (1992)].

[3] = compounds described in Patent Document 7 (WO 97/34873)
[4] = compounds according to the present invention

Sequence of human ERG (hERG) (Q12809 whole entry): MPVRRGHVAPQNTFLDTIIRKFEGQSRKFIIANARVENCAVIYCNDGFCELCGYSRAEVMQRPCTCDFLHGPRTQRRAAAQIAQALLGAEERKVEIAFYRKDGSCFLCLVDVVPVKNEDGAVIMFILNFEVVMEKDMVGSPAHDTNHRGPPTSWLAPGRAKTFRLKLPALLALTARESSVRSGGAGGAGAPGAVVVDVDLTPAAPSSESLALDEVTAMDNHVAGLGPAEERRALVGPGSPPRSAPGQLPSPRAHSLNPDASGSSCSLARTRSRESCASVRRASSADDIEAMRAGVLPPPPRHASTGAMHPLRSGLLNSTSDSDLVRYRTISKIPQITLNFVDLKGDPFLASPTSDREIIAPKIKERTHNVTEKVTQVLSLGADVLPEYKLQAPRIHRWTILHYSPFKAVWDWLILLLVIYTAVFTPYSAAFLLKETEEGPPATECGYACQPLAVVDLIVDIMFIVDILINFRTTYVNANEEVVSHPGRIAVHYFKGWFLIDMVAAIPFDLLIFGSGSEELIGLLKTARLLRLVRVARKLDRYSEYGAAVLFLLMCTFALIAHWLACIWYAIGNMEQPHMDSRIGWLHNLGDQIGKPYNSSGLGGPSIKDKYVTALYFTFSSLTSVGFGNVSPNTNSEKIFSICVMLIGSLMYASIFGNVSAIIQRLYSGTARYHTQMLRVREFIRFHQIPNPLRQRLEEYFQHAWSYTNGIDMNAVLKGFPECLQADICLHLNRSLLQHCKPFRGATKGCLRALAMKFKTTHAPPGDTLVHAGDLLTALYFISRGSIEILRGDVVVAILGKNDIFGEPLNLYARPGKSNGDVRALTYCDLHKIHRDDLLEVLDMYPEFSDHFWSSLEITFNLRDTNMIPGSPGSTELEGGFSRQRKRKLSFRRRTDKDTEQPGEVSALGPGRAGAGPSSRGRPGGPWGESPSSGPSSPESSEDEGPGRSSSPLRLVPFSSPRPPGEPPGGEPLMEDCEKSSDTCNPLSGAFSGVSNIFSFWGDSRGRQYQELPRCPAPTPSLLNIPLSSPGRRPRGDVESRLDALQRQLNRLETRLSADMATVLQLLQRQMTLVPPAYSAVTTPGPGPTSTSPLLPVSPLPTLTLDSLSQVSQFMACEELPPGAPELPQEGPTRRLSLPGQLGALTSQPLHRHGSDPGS

| IC50 [2] | Compound | Activity for Human ERG [1, 3] | Activity for Human ERG [1, 4] |
| --- | --- | --- | --- |
|  | CCc1nnc(SCc2cc(N3CCOCC3)cc(NCc3cccc(OC)c3)n2)s1 [reference compound] | 0.028 µM |  |
|  | CCc1nnc(SCc2cc(N3CCOCC3)cc(NCc3cccc(O)c3)n2)s1 [reference compound] | 0.16 µM |  |
| 2.2 nM | Cc1cc(SCc2cc(N3CCC(F)(F)CC3)cc(NCC(F)(F)F)n2)nn1C [Example 9, 4-(4,4-difluoro-1-piperidinyl)-6-{[(1,5-dimethyl-1H-pyrazol-3-yl)thio]methyl}-N-(2,2,2-trifluoroethyl)-2-pyridinamine] |  | 5.3 µM |
| 6.5 nM | Cc1nc(SCc2cc(N3CCSCC3)cc(NCC#N)n2)n(C)c1C [Example 34, [(4-(4-thiomorpholinyl)-6-{[(1,4,5-trimethyl-1H-imidazol-2-yl)thio]methyl}-2-pyridinyl)amino]acetonitrile] |  | 7.3 µM |
| 44 nM | Cc1nc(SCc2cc(N3CCCCCC3)cc(NCC(F)(F)F)n2)cn1C [Example 13, 4-(1-azepanyl)-6-{[(1,2-dimethyl-1H-imidazol-4-yl)thio]methyl}-N-(2,2,2-trifluoroethyl)-2-pyridinamine] |  | 8.2 µM |
| 17 nM | Cc1nc(SCc2cc(N3CCC(F)(F)CC3)cc(NCC(F)(F)F)n2)nn1C [Example 5, 4-(4,4-difluoro-1-piperidinyl)-6-{[(1,5-dimethyl-1H-1,2,4-triazol-3-yl)thio]methyl}-N-(2,2,2-trifluoroethyl)-2-pyridinamine] |  | 16 µM |
| 16 nM | Cc1nc(SCc2cc(N3CCC(F)(F)CC3)cc(NCCS(C)(=O)=O)n2)oc1C [Example 48, 4-(4,4-difluoro-1-piperidinyl)-6-{[(4,5-dimethyl-1,3-oxazol-2-yl)thio]methyl}-N-[2-(methylsulfonyl)ethyl]-2-pyridinamine] |  | 5.9 µM |
| 27.5 nM | O=S1(=O)CCN(c2cc(CSc3nc4c(o3)CCCC4)nc(NCC(F)(F)F)c2)CC1 [Example 12] |  | 14 µM |
| 10 nM | Cc1cc(CCc2cc(N3CCC(F)(F)CC3)cc(NCC#N)n2)nn1C [Example 32, ({4-(4,4-difluoro-1-piperidinyl)-6-[2-(1,5-dimethyl-1H-pyrazol-3-yl)ethyl]-2-pyridinyl}amino)acetonitrile] |  | 11 µM |
|  | CCc1nnc(SCc2cc(N3CCOCC3)cc(NCc3cccc(NC(C)=O)c3)n2)s1 [reference compound] | 0.57 µM |  |

| Compound | IC50 [2] | Activity for Human ERG [1, 3] | Activity for Human ERG [1, 4] |
| --- | --- | --- | --- |
| Cc1nc(SCc2cc(N3C4CCC3COC4)cc(NCC#N)n2)sc1C [Example 1] | 16 nM |  | 33 µM |
| CCc1oc(CC(O)c2cc(N3C4CCC3COC4)cc(NCC(F)(F)F)n2)nc1C (single isomer, unassigned) [Example 21] | 26 nM |  | 14 µM |
| COC(=O)CNc1cc(N2C3CCC2COC3)cc(CSc2nc(C)c(C)s2)n1 [Example 38, {[6-{[(4,5-dimethyl-1,3-thiazol-2-yl)thio]methyl}-4-(3-oxa-8-azabicyclo[3,2,1]octo-8-yl)-2-pyridinyl]amino}acetic acid methyl ester] | 2.8 nM |  | 7.4 µM |
